Test results published in article PMC4537050, “A long pentraxin-3-derived pentapeptide for the therapy of FGF8b-driven steroid hormone-regulated cancers” (Oncotarget, 2015).

Experiments:
[1] = In vivo ARPCA toxicity studies
Experimental: Eight week-old C57BL/6 mice were treated i.p. with 100 mg/kg of ARPCA every other day for two weeks. During this period, animals were weighted for body weight variation analysis. At the end of treatment, whole blood and serum were harvested and analysed for blood components, biochemical serum parameters and circulating levels of FGF23. The serum levels of FGF23 were assessed by ELISA (Uscn Life Science Inc., Wuhan, PRC, Asia) according to manufacturer's instructions. Untreated mice were used as reference/control.

[2] = molecular target: T1, HSPG/FGF8b/FGFR1 ternary complexes (Homo sapiens, UniProt P55075); experiment: HSPG/FGF8b/FGFR1 mediated cell-cell adhesion assay; type: cell-based; conditions: 30 ng/ml FGF8b, increasing peptide concentrations
T1 construct: purchased PeproTech; host or cells: FGF8b was added to A745-CHO-flg-1A-luc cells (FGFR1 IIIc transfected) on a glutaraldehyde-fixed CHO-K1 monolayer (endogenous HSPGs)
T1 sequence (P55075 23-215 isoform P55075-3 limits assumed): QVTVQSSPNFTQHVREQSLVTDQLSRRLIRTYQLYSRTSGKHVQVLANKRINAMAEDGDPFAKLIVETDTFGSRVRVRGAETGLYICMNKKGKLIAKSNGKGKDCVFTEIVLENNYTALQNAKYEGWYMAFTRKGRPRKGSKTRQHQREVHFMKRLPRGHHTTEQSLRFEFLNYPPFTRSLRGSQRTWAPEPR
Experimental: This assay was performed as described with minor modifications. Briefly, wild-type CHO-K1 cells were seeded in 24-well plates at 150000 cells/cm^2. After 24 h, cell monolayers were washed with PBS and incubated with 3% glutaraldehyde in PBS for 2 h at 4°C. Fixation was stopped with 0.1 M glycine and cells were washed extensively with PBS. Then, A745-CHO-flg-1A-luc cells (50000 cells/cm^2) were added to CHO-K1 monolayers in serum-free medium plus 10 mM EDTA with or without 30 ng/ml FGF8b in the absence or presence of increasing concentrations of the ARPCA or ARPVA peptides. After 2 h of incubation at 37°C, unattached cells were removed by washing twice with PBS, and A745-CHO-flg-1A-luc bound to the CHO-K1 monolayer were solubilized and luciferase activity was quantified. All experiments were performed in triplicate.

FGF8b = molecular target: T2, FGF8b (Homo sapiens, UniProt P55075); experiment: ARPCA-FGF8 interaction by 2D 1H-13C HSQC NMR titration; type: binding; parameters: purchased ASLA (Riga, Latvia); conditions: 190 μM ARPCA, FGF8b:ARPCA 0.5:1 and 1:1, intermediate to fast exchange
T2 sequence (P55075 23-215 isoform P55075-3 limits assumed): T1 sequence (P55075 23-215 isoform P55075-3 limits assumed)
Experimental: NMR experiments were collected on samples containing 190 μM of ARPCA, dissolved in 50 mM potassium phosphate buffer pH 6.7 (90% H2O/10% D2O), 2.5 mM arginine, 10mM NaCl in the presence of variable concentrations of FGF8 corresponding to 1:0, 1:0.5, and 1:1 ARPCA:FGF8 ratios.
2D 1H-13C HSQC spectra were recorded with a sweep width of 10 ppm and 100 ppm.2k × 128 data points were used in proton and carbon dimensions, respectively. Data, acquired and processed using Topspin (Bruker Biospin), were apodized with a squared sinebell shifted by 90° and polynomial baseline correction. All NMR spectra were recorded at 298 K with a Bruker DMX spectrometer operating at 600 MHz.

FGF3 = molecular target: T3, FGF3 (Homo sapiens, UniProt P11487); experiment: SPR analysis of FGF/ARPCA interaction, FGF3; type: binding; conditions: immobilized FGF3
T3 sequence (P11487 18-239): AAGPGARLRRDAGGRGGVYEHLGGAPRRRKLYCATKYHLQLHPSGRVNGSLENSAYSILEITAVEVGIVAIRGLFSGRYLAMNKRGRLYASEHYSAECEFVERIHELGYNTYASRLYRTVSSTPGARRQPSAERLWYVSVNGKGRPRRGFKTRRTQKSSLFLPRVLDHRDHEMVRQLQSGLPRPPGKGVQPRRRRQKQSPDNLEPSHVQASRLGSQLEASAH

TRAMP-C2 tumor grafts = experiment: In vivo tumor therapy study, TRAMP-C2 tumors; parameters: species or system C57BL/6 male mice; conditions: s.c. TRAMP-C2 cells, i.p. 100 mg/kg every other day
Experimental: (§1) Eight week old C57BL/6 male mice were injected s.c. with 8×10^6 TRAMP-C2 cells, and eight week old athymic Nu/Nu male mice were injected s.c. with 5×10^6 S115 cells. All injections were performed in 200 μl total volume of PBS into the dorsolateral flank. When tumors were palpable treatment was performed every other day by i.p. injection of ARPCA, ARPVA (both at 100 mg/kg) or vehicle (PBS) in 100 μl final volume. Tumors were measured in two dimensions and tumor volume was calculated according to the formula V=(D × d^2)/2, where D and d are the major and minor perpendicular tumor diameters, respectively. At the end of the experimental procedure tumors were harvested, weighted and photographed.

FGF6 = molecular target: T4, FGF6 (Homo sapiens, UniProt P10767); experiment: SPR analysis of FGF/ARPCA interaction, FGF6; type: binding; conditions: immobilized FGF6
T4 sequence (P10767 38-208): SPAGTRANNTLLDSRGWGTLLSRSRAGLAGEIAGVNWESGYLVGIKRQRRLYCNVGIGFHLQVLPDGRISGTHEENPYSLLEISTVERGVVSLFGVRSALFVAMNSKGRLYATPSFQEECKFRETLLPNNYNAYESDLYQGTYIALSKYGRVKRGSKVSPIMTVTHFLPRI

HUVEC spheroids = experiment: Endothelial cell sprouting assay (HUVEC spheroids in fibrin gel); type: cell-based, human; conditions: 60 μM peptide, 24 h
Experimental: HUVEC spheroid aggregates were prepared in 20% methylcellulose medium, embedded in fibrin gel, and stimulated with FGF8b or VEGF-A (both at 30 ng/ml) plus 5% FBS in the absence or presence of 60 μM ARPCA or ARPVA. Formation of radially growing cell sprouts was observed during the next 24 h, photographed at 200x magnification using an Axiovert 200M microscope (Carl Zeiss, Milan, Italy, EU) and counted.

S115 tumors = experiment: In vivo tumor therapy study, S115 tumors; parameters: species or system athymic Nu/Nu male mice; conditions: s.c. S115 cells, i.p. 100 mg/kg every other day starting at day 8, followed for the next 32 days
Experimental: as §1

FGF4 = molecular target: T5, FGF4 (Homo sapiens, UniProt P08620); experiment: SPR analysis of FGF/ARPCA interaction, FGF4; type: binding; conditions: immobilized FGF4
T5 sequence (P08620 31-206): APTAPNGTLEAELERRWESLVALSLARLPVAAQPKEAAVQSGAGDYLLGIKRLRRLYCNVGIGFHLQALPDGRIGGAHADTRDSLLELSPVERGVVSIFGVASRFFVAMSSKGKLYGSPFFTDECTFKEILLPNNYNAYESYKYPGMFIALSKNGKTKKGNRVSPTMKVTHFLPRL

## Ac-ARPCA-NH2 [ARPCA, Ac-ARPCA-NH2]
[1]; i.p. 100 mg/kg every other day for two weeks
  body weight: did not affect
[1]; long-term administration, i.p. 100 mg/kg every other day
  hematologic parameters, blood serum components and FGF23 serum levels (in words): did not affect
[2]
  inhibitory activity on FGF8b-mediated cell-cell adhesion (in words): dose-dependent inhibitory activity
FGF8b
  binding to FGF8b indicated by NMR titration: micromolar range
FGF3
  Kd, FGF3: n.b.
TRAMP-C2 tumor grafts
  growth of TRAMP-C2 tumor grafts, long-term assay: inhibited the growth of TRAMP-C2 tumor grafts
FGF6
  Kd, FGF6: n.b.
HUVEC spheroids; 30 ng/ml FGF8b
  sprouting activity exerted by FGF8b on HUVEC spheroids: specifically prevents the pro-angiogenic/sprouting activity
HUVEC spheroids; 30 ng/ml VEGF-A
  effect on the angiogenic potential of VEGF-A on HUVEC spheroids: no effect
S115 tumors
  S115 tumor growth, long-term experiment: suppresses S115 tumor growth
FGF4
  Kd, FGF4: n.b.
